Results as given in ChEMBL document CHEMBL1240496, “Development of potent glucagon-like peptide-1 agonists with high enzyme stability via introduction of multiple lactam bridges” (J Med Chem, 2010).
Bridge positions count the residues as written; N and C are the ends. Peptide text beside a SMILES is read from it.

Key:
[1] = target: T1, Glucagon-like peptide 1 receptor (Homo sapiens, UniProt P43220); assay: Activation of human GLP1 receptor expressed in HEK293 cells assessed as increase in cAMP accumulation; format: functional, cell-based
NEP 24.11 = assay: Chemical stability of the compound assessed as half life up to 24 hrs by HPLC analysis in presence of human recombinant NEP 24.11; format: physicochemical
[2] = target: T1, Glucagon-like peptide 1 receptor; assay: Activation of human GLP1 receptor expressed in HEK293 cells assessed as increase in cAMP accumulation relative to GLP1; format: functional, cell-based
DPP4 = assay: Chemical stability of the compound assessed as half life up to 24 hrs by HPLC analysis in presence of human recombinant DPP4; format: physicochemical

T1 sequence (P43220 whole entry): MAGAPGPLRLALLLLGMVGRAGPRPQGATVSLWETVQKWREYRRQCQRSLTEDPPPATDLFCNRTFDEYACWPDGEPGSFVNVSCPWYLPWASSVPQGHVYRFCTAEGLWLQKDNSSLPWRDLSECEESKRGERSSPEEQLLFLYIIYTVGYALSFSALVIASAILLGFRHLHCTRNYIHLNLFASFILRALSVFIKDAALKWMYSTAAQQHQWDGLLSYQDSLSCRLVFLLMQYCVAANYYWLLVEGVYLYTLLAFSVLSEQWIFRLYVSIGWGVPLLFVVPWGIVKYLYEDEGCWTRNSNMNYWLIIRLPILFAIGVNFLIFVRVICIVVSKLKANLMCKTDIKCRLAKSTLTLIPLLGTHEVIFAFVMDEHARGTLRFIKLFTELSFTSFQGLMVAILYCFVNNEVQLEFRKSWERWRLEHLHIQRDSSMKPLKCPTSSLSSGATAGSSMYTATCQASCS

EC50 ([1]; read-out: EC50) | half-life (NEP 24.11) | Activity [2] | half-life (DPP4) | EC50 ([1]; read-out: pEC50 (converted)) | SMILES
2.8 nM | 6.9 h |  | 2.9 h | 5.01 nM | CC[C@H](C)[C@H](NC(=O)[C@H](Cc1ccccc1)NC(=O)[C@H](CCC(=O)O)NC(=O)[C@@H]1CCCCNC(=O)CC[C@H](NC(=O)[C@H](CCC(=O)O)NC(=O)[C@H](CC(C)C)NC(=O)[C@H](Cc2ccc(O)cc2)NC(=O)[C@H](CO)NC(=O)[C@H](CO)NC(=O)[C@@H](NC(=O)[C@H](CC(=O)O)NC(=O)[C@H](CO)NC(=O)[C@@H](NC(=O)[C@H](Cc2ccccc2)NC(=O)[C@@H](NC(=O)CNC(=O)[C@H](CCC(=O)O)NC(=O)[C@H](C)NC(=O)[C@@H](N)Cc2cnc[nH]2)[C@@H](C)O)[C@@H](C)O)C(C)C)C(=O)N[C@@H](CCC(N)=O)C(=O)N[C@@H](C)C(=O)N[C@@H](C)C(=O)N1)C(=O)N[C@@H](C)C(=O)N[C@@H](Cc1c[nH]c2ccccc12)C(=O)N[C@@H](CC(C)C)C(=O)N[C@H](C(=O)N[C@@H](CCCCN)C(=O)NCC(=O)N[C@@H](CCCN=C(N)N)C(=O)O)C(C)C
 |  | 140% |  |  | CC[C@H](C)[C@H](NC(=O)[C@H](Cc1ccccc1)NC(=O)[C@H](CCC(=O)O)NC(=O)[C@H](CCCCN)NC(=O)[C@H](C)NC(=O)[C@H](C)NC(=O)[C@H](CCC(N)=O)NC(=O)CNC(=O)[C@H](CCC(=O)O)NC(=O)[C@@H]1CCCCNC(=O)CC[C@H](NC(=O)[C@H](CC(=O)O)NC(=O)[C@H](CO)NC(=O)[C@@H](NC(=O)[C@H](Cc2ccccc2)NC(=O)[C@@H](NC(=O)CNC(=O)[C@H](CCC(=O)O)NC(=O)[C@H](C)NC(=O)[C@@H](N)Cc2cnc[nH]2)[C@@H](C)O)[C@@H](C)O)C(=O)N[C@@H](CO)C(=O)N[C@@H](CO)C(=O)N[C@@H](Cc2ccc(O)cc2)C(=O)N1)C(=O)N[C@H]1CCC(=O)NCCCC[C@@H](C(=O)NCC(=O)N[C@@H](CCCNC(=N)N)C(N)=O)NC(=O)[C@H](C(C)C)NC(=O)[C@H](CC(C)C)NC(=O)[C@H](Cc2c[nH]c3ccccc23)NC1=O (H-HAEGTFTSDESSYKEGQAAKEFIEWLVKGR-NH2; lactam 10-14, 24-28)
 |  | 260% |  |  | CC[C@H](C)[C@H](NC(=O)[C@H](Cc1ccccc1)NC(=O)[C@H](CCC(=O)O)NC(=O)[C@@H]1CCCCNC(=O)CC[C@H](NC(=O)[C@H](CCC(=O)O)NC(=O)[C@@H]2CCCCNC(=O)CC[C@H](NC(=O)[C@H](CC(=O)O)NC(=O)[C@H](CO)NC(=O)[C@@H](NC(=O)[C@H](Cc3ccccc3)NC(=O)[C@@H](NC(=O)CNC(=O)[C@H](CCC(=O)O)NC(=O)[C@H](C)NC(=O)[C@@H](N)Cc3cnc[nH]3)[C@@H](C)O)[C@@H](C)O)C(=O)N[C@@H](CO)C(=O)N[C@@H](CO)C(=O)N[C@@H](Cc3ccc(O)cc3)C(=O)N2)C(=O)N[C@@H](CCC(N)=O)C(=O)N[C@@H](C)C(=O)N[C@@H](C)C(=O)N1)C(=O)N[C@H]1CCC(=O)NCCCC[C@@H](C(=O)NCC(=O)N[C@@H](CCCNC(=N)N)C(N)=O)NC(=O)[C@H](C(C)C)NC(=O)[C@H](CC(C)C)NC(=O)[C@H](Cc2c[nH]c3ccccc23)NC1=O (H-HAEGTFTSDESSYKEEQAAKEFIEWLVKGR-NH2; lactam 10-14, 16-20, 24-28)
 |  | 240% |  |  | CC[C@H](C)[C@H](NC(=O)[C@H](Cc1ccccc1)NC(=O)[C@H](CCC(=O)O)NC(=O)[C@H](CCCCN)NC(=O)[C@H](C)NC(=O)[C@H](C)NC(=O)[C@H](CCC(N)=O)NC(=O)[C@@H]1CCCCNC(=O)CC[C@H](NC(=O)[C@H](CO)NC(=O)[C@@H](NC(=O)[C@H](CC(=O)O)NC(=O)[C@H](CO)NC(=O)[C@@H](NC(=O)[C@H](Cc2ccccc2)NC(=O)[C@@H](NC(=O)CNC(=O)[C@H](CCC(=O)O)NC(=O)[C@H](C)NC(=O)[C@@H](N)Cc2cnc[nH]2)[C@@H](C)O)[C@@H](C)O)C(C)C)C(=O)N[C@@H](Cc2ccc(O)cc2)C(=O)N[C@@H](CC(C)C)C(=O)N[C@@H](CCC(=O)O)C(=O)N1)C(=O)N[C@H]1CCC(=O)NCCCC[C@@H](C(=O)NCC(=O)N[C@@H](CCCNC(=N)N)C(N)=O)NC(=O)[C@H](C(C)C)NC(=O)[C@H](CC(C)C)NC(=O)[C@H](Cc2c[nH]c3ccccc23)NC1=O
3.3 nM | 6.6 h |  | 3.1 h |  | CC[C@H](C)[C@H](NC(=O)[C@H](Cc1ccccc1)NC(=O)[C@H](CCC(=O)O)NC(=O)[C@H](CCCCN)NC(=O)[C@H](C)NC(=O)[C@H](C)NC(=O)[C@H](CCC(N)=O)NC(=O)CNC(=O)[C@H](CCC(=O)O)NC(=O)[C@@H]1CCCCNC(=O)CC[C@H](NC(=O)[C@H](CC(=O)O)NC(=O)[C@H](CO)NC(=O)[C@@H](NC(=O)[C@H](Cc2ccccc2)NC(=O)[C@@H](NC(=O)CNC(=O)[C@H](CCC(=O)O)NC(=O)[C@H](C)NC(=O)[C@@H](N)Cc2cnc[nH]2)[C@@H](C)O)[C@@H](C)O)C(=O)N[C@@H](CO)C(=O)N[C@@H](CO)C(=O)N[C@@H](Cc2ccc(O)cc2)C(=O)N1)C(=O)N[C@H]1CCC(=O)NCCCC[C@@H](C(=O)NCC(=O)N[C@@H](CCCN=C(N)N)C(N)=O)NC(=O)[C@H](C(C)C)NC(=O)[C@H](CC(C)C)NC(=O)[C@H](Cc2c[nH]c3ccccc23)NC1=O (H-HAEGTFTSDESSYKEGQAAKEFIEWLVKGR-NH2; lactam 10-14, 24-28)

Further lines, the molecule ahead of its results:

SMILES | EC50 ([1]; read-out: EC50) | half-life (NEP 24.11) | Activity [2] | half-life (DPP4) | EC50 ([1]; read-out: pEC50 (converted))
CC[C@H](C)[C@H](NC(=O)[C@H](Cc1ccccc1)NC(=O)[C@H](CCC(=O)O)NC(=O)[C@H](CCCCN)NC(=O)[C@H](C)NC(=O)[C@H](C)NC(=O)[C@H](CCC(N)=O)NC(=O)CNC(=O)[C@@H]1CCCCNC(=O)CC[C@H](NC(=O)[C@H](CC(=O)O)NC(=O)[C@H](CO)NC(=O)[C@@H](NC(=O)[C@H](Cc2ccccc2)NC(=O)[C@@H](NC(=O)CNC(=O)[C@H](CCC(=O)O)NC(=O)[C@H](C)NC(=O)[C@@H](N)Cc2cnc[nH]2)[C@@H](C)O)[C@@H](C)O)C(=O)N[C@@H](CO)C(=O)N[C@@H](CO)C(=O)N[C@@H](Cc2ccc(O)cc2)C(=O)N1)C(=O)N[C@@H](C)C(=O)N[C@@H](Cc1c[nH]c2ccccc12)C(=O)N[C@@H](CC(C)C)C(=O)N[C@H](C(=O)N[C@@H](CCCCN)C(=O)NCC(=O)N[C@@H](CCCNC(=N)N)C(N)=O)C(C)C (H-HAEGTFTSDESSYKGQAAKEFIAWLVKGR-NH2; lactam 10-14) | 3.8 nM | 3.2 h | 120% | 1.8 h | 
CC[C@H](C)[C@H](NC(=O)[C@H](Cc1ccccc1)NC(=O)[C@H](CCC(=O)O)NC(=O)[C@@H]1CCCCNC(=O)CC[C@H](NC(=O)[C@H](CCC(=O)O)NC(=O)[C@H](CC(C)C)NC(=O)[C@H](Cc2ccc(O)cc2)NC(=O)[C@H](CO)NC(=O)[C@H](CO)NC(=O)[C@@H](NC(=O)[C@H](CC(=O)O)NC(=O)[C@H](CO)NC(=O)[C@@H](NC(=O)[C@H](Cc2ccccc2)NC(=O)[C@@H](NC(=O)CNC(=O)[C@H](CCC(=O)O)NC(=O)[C@H](C)NC(=O)[C@@H](N)Cc2cnc[nH]2)[C@@H](C)O)[C@@H](C)O)C(C)C)C(=O)N[C@@H](CCC(N)=O)C(=O)N[C@@H](C)C(=O)N[C@@H](C)C(=O)N1)C(=O)N[C@@H](C)C(=O)N[C@@H](Cc1c[nH]c2ccccc12)C(=O)N[C@@H](CC(C)C)C(=O)N[C@H](C(=O)N[C@@H](CCCCN)C(=O)NCC(=O)N[C@@H](CCCNC(=N)N)C(=O)O)C(C)C |  |  | 160% |  | 
CC[C@H](C)[C@H](NC(=O)[C@H](Cc1ccccc1)NC(=O)[C@H](CCC(=O)O)NC(=O)[C@H](CCCCN)NC(=O)[C@H](C)NC(=O)[C@H](C)NC(=O)[C@H](CCC(N)=O)NC(=O)[C@@H]1CCCCNC(=O)CC[C@H](NC(=O)[C@H](CO)NC(=O)[C@@H](NC(=O)[C@H](CC(=O)O)NC(=O)[C@H](CO)NC(=O)[C@@H](NC(=O)[C@H](Cc2ccccc2)NC(=O)[C@@H](NC(=O)CNC(=O)[C@H](CCC(=O)O)NC(=O)[C@H](C)NC(=O)[C@@H](N)Cc2cnc[nH]2)[C@@H](C)O)[C@@H](C)O)C(C)C)C(=O)N[C@@H](Cc2ccc(O)cc2)C(=O)N[C@@H](CC(C)C)C(=O)N[C@@H](CCC(=O)O)C(=O)N1)C(=O)N[C@H]1CCC(=O)NCCCC[C@@H](C(=O)NCC(=O)N[C@@H](CCCN=C(N)N)C(N)=O)NC(=O)[C@H](C(C)C)NC(=O)[C@H](CC(C)C)NC(=O)[C@H](Cc2c[nH]c3ccccc23)NC1=O | 1.9 nM | > 96 h |  | 3.6 h | 
CC[C@H](C)[C@H](NC(=O)[C@H](Cc1ccccc1)NC(=O)[C@H](CCC(=O)O)NC(=O)[C@H](CCCCN)NC(=O)[C@H](C)NC(=O)[C@H](C)NC(=O)[C@H](CCC(N)=O)NC(=O)CNC(=O)[C@H](CC(C)C)NC(=O)[C@H](Cc1ccc(O)cc1)NC(=O)[C@H](CO)NC(=O)[C@H](CO)NC(=O)[C@@H](NC(=O)[C@H](CC(=O)O)NC(=O)[C@H](CO)NC(=O)[C@@H](NC(=O)[C@H](Cc1ccccc1)NC(=O)[C@@H](NC(=O)CNC(=O)[C@H](CCC(=O)O)NC(=O)[C@H](C)NC(=O)[C@@H](N)Cc1cnc[nH]1)[C@@H](C)O)[C@@H](C)O)C(C)C)C(=O)N[C@@H](C)C(=O)N[C@@H](Cc1c[nH]c2ccccc12)C(=O)N[C@@H](CC(C)C)C(=O)N[C@H](C(=O)N[C@@H](CCCCN)C(=O)NCC(=O)N[C@@H](CCCNC(=N)N)C(=O)O)C(C)C [GLP-1] (H-HAEGTFTSDVSSYLGQAAKEFIAWLVKGR-OH) |  | 4.6 h |  | 2 h | 
CC[C@H](C)[C@H](NC(=O)[C@H](Cc1ccccc1)NC(=O)[C@H](CCC(=O)O)NC(=O)[C@@H]1CCCCNC(=O)CC[C@H](NC(=O)[C@H](CCC(=O)O)NC(=O)[C@@H]2CCCCNC(=O)CC[C@H](NC(=O)[C@H](CC(=O)O)NC(=O)[C@H](CO)NC(=O)[C@@H](NC(=O)[C@H](Cc3ccccc3)NC(=O)[C@@H](NC(=O)CNC(=O)[C@H](CCC(=O)O)NC(=O)[C@H](C)NC(=O)[C@@H](N)Cc3cnc[nH]3)[C@@H](C)O)[C@@H](C)O)C(=O)N[C@@H](CO)C(=O)N[C@@H](CO)C(=O)N[C@@H](Cc3ccc(O)cc3)C(=O)N2)C(=O)N[C@@H](CCC(N)=O)C(=O)N[C@@H](C)C(=O)N[C@@H](C)C(=O)N1)C(=O)N[C@H]1CCC(=O)NCCCC[C@@H](C(=O)NCC(=O)N[C@@H](CCCN=C(N)N)C(N)=O)NC(=O)[C@H](C(C)C)NC(=O)[C@H](CC(C)C)NC(=O)[C@H](Cc2c[nH]c3ccccc23)NC1=O (H-HAEGTFTSDESSYKEEQAAKEFIEWLVKGR-NH2; lactam 10-14, 16-20, 24-28) | 1.8 nM | > 96 h |  | > 24 h | 
